Patent publication US20260306644A1, “ANTIBODY RECRUITING MOLECULES FOR THE TREATMENT OF CORONAVIRUS DISEASE-19” (priority 2023, published 2026)
Where “and” joins values, the source holds several entries; their conditions need not be identical. Equal values may be shown once. Read-outs that look alike come from different tables or passages of the source. Positions of bridges follow the written chain, without caps; N, C: chain ends. Residues, ends and D or L forms follow the SMILES beside them. *: point of attachment. Biotin = O=C1N[C@H]2[C@H](CS[C@H]2CCCCC(=O)*)N1; PEG4 = NCCOCCOCCOCCOCCC(=O)O

Columns and labels:
[1] = tested on: Spike RBD coated magnetic beads / RAW 264.7 macrophages; assay: Antibody-dependent cellular phagocytosis (ADCP), RAW 264.7 macrophages and Spike RBD coated magnetic beads, flow cytometry; assay type: cell-based; conditions: 37° C., 2 hours, read-out: SARS-COV-2 ADCP EC50
Protocol: The ability of the compounds to mediate antibody-dependent cellular phagocytosis (ADCP) was assessed using RAW 264.7 macrophages and Spike RBD coated magnetic beads (https://www.acrobiosystems.com/P3194-SARS-CoV-2-Spike-RBD-coupled-Magnetic-Beads.html). Spike RBD coated magnetic beads (3 ul per well) were added to each well of a round bottom 96-well plates. RAW264.7 cells (50,000 cells per well) were added to the beads. Next, the compounds were administered to predetermined final concentrations. The cell-bead mixtures were incubated at 37° C. for 2 hours. The mixtures were then analyzed by flow cytometry.

[2] = target: T1, SARS-CoV-2 Spike A (wild-type) (Severe acute respiratory syndrome coronavirus 2, UniProt P0DTC2); assay: MSD ACE2 competition assay (inhibition of Spike binding with ACE2, ECL), A (wild-type); conditions: IC50 Wild Type, Wild Type Spike
T1 construct: purchased Meso Scale Diagnostics, LLC V-PLEX SARS-CoV-2 Panel 13 (ACE2) Kit / Panel 23 (ACE2) Kit

[3] = target: SARS-CoV-2 Spike protein (Severe acute respiratory syndrome coronavirus 2, UniProt P0DTC2); assay: Ternary binding of SARS-CoV-2 Spike protein (293T cells expressing Spike-GFP, IgG-AF647, flow cytometry); assay type: cell-based; conditions: IgG-AF647 10 μg/ml, repeat values/batches listed separately, read-out: SARS-CoV-2 Ternary binding EC50
[4] = 293T cells expressing Spike-GFP

Row | Compound | EC50 [1] | IC50 [2] | EC50 [3, 4] | EC50 ([3]; […])
1 | CC[C@H](C)[C@H](NC(=O)[C@H](CC(C)C)NC(=O)[C@H](CC(=O)O)NC(=O)[C@H](CO)NC(=O)[C@@H](NC(=O)[C@H](CCCNC(=N)N)NC(=O)[C@H](CCSC)NC(=O)[C@H](CO)NC(=O)[C@H](C)NC(=O)[C@H](CCC(=O)O)NC(=O)[C@H](C)NC(=O)[C@H](Cc1c[nH]cn1)NC(=O)CNC(=O)[C@H](CC(C)C)NC(=O)[C@H](CCC(=O)O)NC(=O)[C@H](CC(=O)O)NC(=O)[C@H](CC(C)C)NC(=O)[C@H](CC(C)C)NC(=O)[C@H](CCCNC(=N)N)NC(=O)[C@H](CCSC)NC(=O)[C@@H](NC(=O)[C@H](CCC(=O)O)NC(=O)[C@H](Cc1ccc(O)cc1)NC(=O)[C@@H](NC(=O)[C@H](CCCCN)NC(=O)[C@H](CCC(N)=O)NC(=O)[C@H](CC(C)C)NC(=O)[C@@H](NC(=O)[C@H](Cc1c[nH]c2ccccc12)NC(=O)[C@H](CCC(=O)O)NC(=O)[C@H](CCCCN)NC(=O)[C@H](CC(=O)O)NC(=O)[C@@H](CCC(=O)O)NC(=O)[C@@H]1CSCC(=O)N[C@@H](C)C(=O)N[C@@H](CO)C(=O)N[C@@H](Cc2ccc(O)cc2)C(=O)N[C@@H](Cc2c[nH]cn2)C(=O)N[C@@H](CC(C)C)C(=O)NCC(=O)N[C@@H](CCC(=O)O)C(=O)N[C@@H](CC(C)C)C(=O)N[C@@H](C(C)C)C(=O)N[C@@H](Cc2c[nH]c3ccccc23)C(=O)N2Cc3ccccc3C[C@H]2C(=O)NC(C)(C)C(=O)N1)[C@@H](C)CC)[C@@H](C)CC)[C@@H](C)CC)C(C)C)C(=O)N[C@@H](Cc1ccc(O)cc1)C(=O)N[C@@H](CCC(=O)O)C(=O)N[C@@H](Cc1ccccc1)C(=O)N[C@@H](CCSC)C(=O)N[C@@H](CCCCN)C(=O)N[C@@H](CCCCN)C(=O)NCC(=O)N[C@@H](CC(=O)O)C(=O)N[C@@H](CCC(=O)O)C(=O)N[C@@H](CCCNC(=N)N)C(=O)N[C@@H](CC(C)C)C(=O)N[C@@H](CC(C)C)C(=O)N[C@@H](CCC(=O)O)C(=O)N[C@@H](CCC(=O)O)C(=O)N[C@@H](C)C(=O)N[C@@H](CCC(=O)O)C(=O)N[C@@H](CCCNC(=N)N)C(=O)N[C@@H](CC(C)C)C(=O)N[C@@H](CC(C)C)C(=O)N[C@@H](CCC(=O)O)C(=O)N[C@@H](CCC(=O)O)C(=O)N[C@H](C(=O)N[C@@H](CCC(=O)O)C(=O)N[C@@H](CCCNC(=N)N)C(=O)O)C(C)C [Compound 130] | 1.3 nM and 1.5 nM | – | – | –
2 | CC[C@H](C)[C@H](NC(=O)[C@H](CC(C)C)NC(=O)[C@H](CC(=O)O)NC(=O)[C@H](CO)NC(=O)[C@@H]1CSSC[C@H](NC(=O)[C@@H](NC(=O)[C@H](CCC(=O)O)NC(=O)[C@H](Cc2ccc(O)cc2)NC(=O)[C@@H](NC(=O)[C@H](CCCCN)NC(=O)[C@H](CCC(N)=O)NC(=O)[C@H](CC(C)C)NC(=O)[C@@H](NC(=O)[C@H](Cc2c[nH]c3ccccc23)NC(=O)[C@H](CCC(=O)O)NC(=O)[C@H](CCCCN)NC(=O)[C@H](CC(=O)O)NC(=O)CCOCCOCCOCCOCCNC(=O)CCCC[C@@H]2SC[C@@H]3NC(=O)N[C@@H]32)[C@@H](C)CC)[C@@H](C)CC)[C@@H](C)CC)C(=O)N[C@@H](CCCNC(=N)N)C(=O)N[C@@H](CC(C)C)C(=O)N[C@@H](CC(C)C)C(=O)N[C@@H](CC(=O)O)C(=O)N[C@@H](CCC(=O)O)C(=O)N[C@@H](CC(C)C)C(=O)NCC(=O)N[C@@H](Cc2c[nH]cn2)C(=O)N[C@@H](C)C(=O)N[C@@H](CCC(=O)O)C(=O)N[C@@H](C)C(=O)N[C@@H](CO)C(=O)N[C@@H](CCSC)C(=O)N[C@@H](CCCNC(=N)N)C(=O)N1)C(=O)N[C@@H](Cc1ccc(O)cc1)C(=O)N[C@@H](CCC(=O)O)C(=O)N[C@@H](Cc1ccccc1)C(=O)N[C@@H](CCSC)C(=O)N[C@@H](CCCCN)C(=O)N[C@@H](CCCCN)C(=O)NCC(=O)O [Compound 181] ({Biotin-PEG4}-DKEWILQKIYEICRLLDELGHAEASMRCSDLIYEFMKKG-OH; disulfide 13-28) | 2.1 nM and 3.1 nM | 2.51 nM | 0.77 nM and < 0.3 nM | –
3 | Ac-DKEWILQKIYEIMRLLDELGHAEASMRVSDLIYEFMKKGDERLLEEAERLLEEVEREAAAKEAAAKDCAWHLGELVWCT-NH2 (disulfide 68-78) [Compound 146] | 0.27 nM | 1 nM | – | 0.02 nM
4 | Ac-DKEWILQKIYEIMRLLDELGHAEASMRVSDLIYEFMKKGDERLLEEAERLLEEVERGGDCAWHLGELVWCT-NH2 (disulfide 60-70) [Compound 145] | 0.52 nM | 0.97 nM | 0.04 nM | –
5 | Ac-DKEWILQKIYEIMRLLDELGHAEASMRVSDLIYEFMKKGDERLLEEAERLLEEVERGGGGDCAWHLGELVWCT-NH2 (disulfide 62-72) [Compound 144] | 0.61 nM | 1.17 nM | 0.03 nM | –
6 | Ac-DKEWILQKIYEIMRLLDELGHAEASMRVSDLIYEFMKKGDERLLEEAERLLEEVERGGGGGGDCAWHLGELVWCT-NH2 (disulfide 64-74) [Compound 143] | 0.75 nM | 1.35 nM | 0.05 nM | –
7 | Ac-DKEWILQKIYEIMRLLDELGHAEASMRVSDLIYEFMKKGDERLLEEAERLLEEVERGGGGGGGGDCAWHLGELVWCT-NH2 (disulfide 66-76) [Compound 142] | 0.6 nM | 1.35 nM | 0.05 nM | –
8 | Ac-DKEWILQKIYEIMRLLDELGHAEASMRVSDLIYEFMKKGDERLLEEAERLLEEVERGQAPGQAPDCAWHLGELVWCT-NH2 (disulfide 66-76) [Compound 147] | 0.43 nM | 1.35 nM | – | 0.02 nM
9 | Ac-DKEWILQKIYEIMRLLDELGHAEASMRVSDLIYEFMKKGDERLLEEAERLLEEVERPASPASPASPASDCAWHLGELVWCT (disulfide 70-80) [Compound 165] | 0.07 nM | 0.83 nM | – | 0.11 nM
10 | DKEWILQKIYEIMRLLDELGHAEASMRVSDLIYEFMKKGDERLLEEAERLLEEVEREAAAKEAAAKDCAWHLGELVWCT-NH2 (disulfide 68-78) [Compound 173] | 0.35 nM | 1.21 nM | – | 0.04 nM
11 | DKEWILQKIYEIMRLLDELGHAEASMRVSDLIYEFMKKGDERLLEEAERLLEEVERGGDCAWHLGELVWCT-NH2 (disulfide 60-70) [Compound 172] | 0.87 nM | 1.05 nM | 0.02 nM | –
12 | DKEWILQKIYEIMRLLDELGHAEASMRVSDLIYEFMKKGDERLLEEAERLLEEVERGGGGDCAWHLGELVWCT-NH2 (disulfide 62-72) [Compound 171] | 0.41 nM | 1.25 nM | 0.01 nM | –
13 | DKEWILQKIYEIMRLLDELGHAEASMRVSDLIYEFMKKGDERLLEEAERLLEEVERGGGGGGDCAWHLGELVWCT-NH2 (disulfide 64-74) [Compound 170] | 0.95 nM | 1.52 nM | 0.02 nM | –
14 | DKEWILQKIYEIMRLLDELGHAEASMRVSDLIYEFMKKGDERLLEEAERLLEEVERGGGGGGGGDCAWHLGELVWCT-NH2 (disulfide 66-76) [Compound 169] | 0.53 nM | 1.22 nM | 0.01 nM | –
15 | DKEWILQKIYEIMRLLDELGHAEASMRVSDLIYEFMKKGDERLLEEAERLLEEVERGQAPGQAPDCAWHLGELVWCT-NH2 (disulfide 66-76) [Compound 174] | 0.044 nM | 1.4 nM | – | 0.14 nM
